Article PMC8533149 (Biomolecules, 2021)

test system: HIV-1 LTR-III G-quadruplex (FAM/TAMRA-labeled LTR-III); experiment: FRET melting assay, LTR-III G4; assay type: binding; settings: Table S1 primary screening, ligand:ODN 50:1, singlicate
How it was run: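 Melting is followed by FAM fluorescence (ex 495/em 520 nm) while heating at 1 °C/min from 30 to 95 °C. Labelled ODN at 0.5 μM, pre-annealed in 10 mM Li cacodylate, 100 mM KCl, pH 7.4, mixed with ligand at 50:1 (25 μM), or 20:1 and 2:1 for titration. ΔTm is relative to the 0.25% DMSO buffer control.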

Compound | LTR-III ΔTm [°C]
CC(C)OC(=O)c1noc(=O)c(O)c1-c1cccc2ccccc12 [SA 300B] | -0.9
CC(C)OC(=O)c1noc(=O)c(O)c1-c1ccc(C(C)C)cc1 [SA 300D] | -1.2
CC(C)OC(=O)c1noc(=O)c(O)c1-c1ccccc1F [SA 305A] | -0.7
CC(C)OC(=O)c1noc(=O)c(O)c1-c1cccc(C(F)(F)F)c1 [SA 305B] | -0.5
CC(C)OC(=O)c1noc(=O)c(O)c1-c1ccc(N(C)C)cc1 [SA 305C] | -0.6
CC(C)OC(=O)c1noc(C(=O)N2CCCC2)c1-c1ccccc1 [SA 307A] | -0.3
COc1ccc(-c2c(C(=O)OC(C)C)noc2C(=O)N2CCCC2)cc1 [SA 309] | -0.5
CNC(=O)c1onc(C(=O)OC(C)C)c1-c1ccccc1 [SA 325A] | -0.5
CC(C)OC(=O)c1noc(C(=O)NC2CCCCC2)c1-c1ccccc1 [SA 325E] | -0.6
CNC(=O)c1onc(C(=O)OC(C)C)c1-c1cccs1 [SA 330A] | -0.5
CC(C)OC(=O)c1noc(C(=O)NCc2ccccc2)c1-c1cccs1 [SA 330E] | -0.7
CNC(=O)c1onc(C(=O)OC(C)C)c1-c1ccccc1F [SA 331A] | -0.7
CC(C)OC(=O)c1noc(C(=O)NC2CCCCC2)c1-c1ccccc1F [SA 331D] | -0.7
CC(C)OC(=O)c1noc(C(=O)NCc2ccccc2)c1-c1ccccc1F [SA 331E] | -0.9
CNC(=O)c1onc(C(=O)OC(C)C)c1-c1ccc(N(C)C)cc1 [SA 332.1] | -0.4
CC(C)OC(=O)c1noc(C(=O)N2CCCC2)c1-c1ccc(N(C)C)cc1 [SA 332.2] | -0.4
CC(C)OC(=O)c1noc(C(=O)NCc2ccccc2)c1-c1ccc(N(C)C)cc1 [SA 332E1] | -0.6
C[C@H](CS)C(=O)N1CCC[C@H]1C(=O)O [SA 333] | -0.4
COc1ccc(-c2c(C(=O)OC(C)C)noc2C(=O)N2CCOCC2)cc1 [SA 341A] | -0.7
COc1ccc(-c2c(C(=O)OC(C)C)noc2C(=O)NC2CCCCC2)cc1 [SA 341B] | -0.2
COc1ccc(-c2c(C(=O)OC(C)C)noc2C(=O)NCc2ccccc2)cc1 [SA 341C] | -0.2

Compound | LTR-III ΔTm [°C]
CC(C)OC(=O)c1noc(C(=O)N2CCOCC2)c1-c1ccc(C(C)C)cc1 [SA 342A] | -0.3
CC(C)OC(=O)c1noc(C(=O)NCc2ccccc2)c1-c1ccc(C(C)C)cc1 [SA 342B] | -0.5
CC(C)OC(=O)c1noc(C(=O)N2CCOCC2)c1-c1cccc2ccccc12 [SA 343A] | -0.4
CC(C)OC(=O)c1noc(C(=O)NCc2ccccc2)c1-c1cccc2ccccc12 [SA 343B] | -0.9
CC(C)OC(=O)c1noc(C(=O)N2CCOCC2)c1-c1cccc(C(F)(F)F)c1 [SA 344A] | -0.5
CC(C)OC(=O)c1noc(C(=O)NCc2ccccc2)c1-c1cccc(C(F)(F)F)c1 [SA 344B] | -0.7
CC(C)OC(=O)c1noc(C(=O)NCc2ccccc2)c1-c1ccc(O)cc1 [SA 345B] | -0.8
COc1ccc(-c2c(C(=O)OC(C)C)noc2C(=O)NCc2ccccn2)cc1 [SA 350C] | -0.6
COc1ccc(-c2c(C(=O)OC(C)C)noc2C(=O)N2CCCCC2)cc1 [SA 375] | -0.4
COC(=O)c1ccc(C=C2N=C(C)N(C)C2=O)cc1 [SA 400] | 0
COc1ccc2cc(OC)c(C=C3N=C(C)N(C)C3=O)cc2c1 [SA 410] | -0.2
CC1=NC(=Cc2ccc([N+](=O)[O-])cc2)C(=O)N1C [SA 412] | 0
CC1=NC(=Cc2ccc(C#N)cc2)C(=O)N1C [SA 433] | -0.4
CC1=NC(=Cc2ccnc3ccccc23)C(=O)N1C [SA 471] | -0.1
COc1ccc(C=C2N=C(C=C(SC)c3ccccc3)N(C)C2=O)cc1 [SA 474.1] | 0
CSC1=NC(=Cc2ccc(O[Si](c3ccccc3)(c3ccccc3)C(C)(C)C)cc2)C(=O)N1C [SA 497] | -0.4
CNC(=O)c1onc(C(=O)OC)c1-c1ccc(OC)cc1 [SA 561A] | -0.3
COC(=O)c1noc(C(=O)N2CCCC2)c1-c1ccc(OC)cc1 [SA 561B] | -0.6
COC(=O)c1noc(C(=O)N2CCCCC2)c1-c1ccc(OC)cc1 [SA 561C] | -1
COC(=O)c1noc(C(=O)NCc2ccccc2)c1-c1ccc(OC)cc1 [SA 561D] | -0.4
COC(=O)c1noc(C(=O)N2CCOCC2)c1-c1ccc(OC)cc1 [SA 561E] | -0.7

Compound | LTR-III ΔTm [°C]
CCOC(=O)c1noc(=O)c(O)c1-c1ccc(OC)cc1 [SA 562B] | -1
CSC1=NC(=Cc2ccc(O)cc2)C(=O)N1C [SA 581] | 1
CSC(=CC1=NC(=Cc2ccc(O)cc2)C(=O)N1C)c1ccccc1 [SA 599.21] | -0.3
COc1cc(/C=C/c2ccc(O)cc2OC)oc(=O)c1 [SAI 32] | 0.4
O=C1NC(=S)SC1=Cc1cc(Br)c(O)c(Br)c1 [SAI 112] | 0.3
COc1cc(C=C2SC(=S)NC2=O)c(OC)cc1O [SAI 115] | -0.3
O=C1NC(=S)SC1=Cc1ccc(O)c(Br)c1 [SAI 117] | -0.2
O=C1NC(=S)SC1=Cc1cc(F)c(O)c(F)c1 [SAI 118] | 0
O=C1NC(=S)SC1=Cc1ccc(O)c(C(=O)O)c1 [SAI 120] | 0.6
O=C1NC(=S)SC1=Cc1ccc(O)cc1Br [SAI 122] | 0.1
O=C1NC(=S)SC1=Cc1ccc(O)c(Cl)c1 [SAI 125] | 0.6
O=C1NC(=S)SC1=Cc1cc(Cl)c(O)c(Cl)c1 [SAI 127] | -0.2
COc1cc(O)ccc1C=C1N=C(c2cccs2)N(C)C1=O [SH 016.3B] | 0.9
CC(=O)NC(=Cc1ccccc1)C(=O)NO [SV 6] | 0
CC(=O)NC(=Cc1ccc(O)cc1)C(=O)NO [SV 7] | 0
CCC1=NC(=Cc2c[nH]c3ccccc23)C(=O)O1 [SV 11] | 0
CCC(=O)NC(=Cc1c[nH]c2ccccc12)C(=O)NC [SV 13] | -0.1
CCC1=NC(=Cc2c[nH]c3ccccc23)C(=O)N1C [SV 14] | 0
COc1ccc(C=C2N=C(C=C(OC(=O)c3ccc(C)cc3)c3ccc(C)cc3)N(C)C2=O)cc1 [SV 18] | 0.4
COc1ccc(C=C2N=C(C=C(O)c3ccc(C)cc3)N(C)C2=O)cc1 [SV 29] | -0.2
COc1ccc(C=C2N=C(C=C(O)c3ccc(F)cc3)N(C)C2=O)cc1 [SV 30] | -0.4

Compound | LTR-III ΔTm [°C]
CC1=NC(=Cc2ccccc2F)C(=O)N1C [SV 50.9] | -0.2
CC1=NC(=Cc2ccc(F)cc2)C(=O)N1C [SV 50.10] | -0.2
COc1cccc(C=C2N=C(C)N(C)C2=O)c1 [SV 50.11] | -0.2
CC1=NC(=Cc2ccc(O)c(C(=O)O)c2)C(=O)N1C [SV 51.1] | -0.4
CC1=NC(=Cc2cc(Br)cc(Br)c2)C(=O)N1C [SV 51.5] | -0.3
CC1=NC(=Cc2ccc(Br)cc2)C(=O)N1C [SV 51.10] | -0.2
CC1=NC(=Cc2cccc3ccccc23)C(=O)N1C [SV 51.12] | 0.4
CC1=NC(=Cc2ccc([N+](=O)[O-])c(O)c2)C(=O)N1C [SV 52.7] | -0.2
CC1=NC(=Cc2ccc(Br)c([N+](=O)[O-])c2)C(=O)N1C [SV 52.8] | 0.6
COc1ccc(C=C2N=C(SC)N(C)C2=O)cc1 [VZ 1] | 0.4
CC(C)(C)[Si](Oc1ccc(C=C2NC(=S)NC2=O)cc1)(c1ccccc1)c1ccccc1 [VZ 2] | -0.2
CC1=NC(=Cc2ccc3cc(N(C)C)ccc3c2)C(=O)N1C [X 001] | -0.5
CC1=NC(=Cc2ccc3cc(N4CCOCC4)ccc3c2)C(=O)N1C [X 002] | -0.6
CC1=NC(=Cc2cc3c4c(c2)CCCN4CCC3)C(=O)N1C [X 4] | 1
CC1=NC(=Cc2ccc(N)c(O)c2)C(=O)N1C [X 5] | 0.9
CCOC(=O)CN1C(=O)C(=Cc2ccc(Br)cc2)N=C1c1ccccc1 [X 6] | -0.1
CC1=NC(=Cc2ccc(OCc3ccccc3)cc2)C(=O)N1C [X 7] | 0
C=CCOc1ccc(C=C2N=C(C)N(C)C2=O)cc1 [X 8] | 0
CC1=NC(=Cc2ccc(Br)cc2)C(=O)N1Cc1ccccc1 [X 9] | -0.6
